These results are taken from ChEMBL document CHEMBL1201862, “PubChem BioAssay data set” (2004).

Active and inactive are the calls of the source.

The nature of test [1]: NIH3T3 cell viability loss – ATP luminescence, mouse fibroblasts, counter-screen, dose response (AID 2010).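 Further: cells exposed to compound for about 90 hours before reading.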 The class given is functional, cell-based.
Test [2] deals with Neuropeptide Y receptor type 1 (Homo sapiens, UniProt P25929). As to the kind of experiment: Fluorescence-based counterscreen for agonists of NPY-Y2: cell-based high-throughput dose response assay for agonists of NPY-Y1. It is filed as functional.
The target of test [3] is T1, Heat shock factor protein 1 (Mus musculus, UniProt P38532).
T1 sequence (P38532 whole entry): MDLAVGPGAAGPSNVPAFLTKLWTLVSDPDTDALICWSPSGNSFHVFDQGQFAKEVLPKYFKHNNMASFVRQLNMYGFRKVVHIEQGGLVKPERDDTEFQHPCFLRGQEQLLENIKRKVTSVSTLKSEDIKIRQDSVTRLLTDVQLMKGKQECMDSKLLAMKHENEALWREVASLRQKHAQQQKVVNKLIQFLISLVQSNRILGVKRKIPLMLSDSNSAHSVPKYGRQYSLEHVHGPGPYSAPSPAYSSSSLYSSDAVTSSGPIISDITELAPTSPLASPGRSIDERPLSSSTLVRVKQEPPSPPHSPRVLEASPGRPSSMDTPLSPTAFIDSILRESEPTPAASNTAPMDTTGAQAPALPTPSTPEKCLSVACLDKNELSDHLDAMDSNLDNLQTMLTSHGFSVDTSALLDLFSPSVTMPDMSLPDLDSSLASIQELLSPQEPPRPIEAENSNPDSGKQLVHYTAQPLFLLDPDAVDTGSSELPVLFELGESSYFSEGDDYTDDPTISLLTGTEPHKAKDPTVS
As to the kind of experiment: decrease of HSF1-responsive luciferase luminescence – cell-based, NIH3T3, dose retest, confirmation (AID 2382).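 Further: NIH3T3 fibroblasts with HSF1-driven luciferase reporter stressed by proteasome inhibitor MG132; luminescence from HSF1-driven luciferase expression after 8 hours of MG132 stress.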 It is filed as functional.

In a further test the test system is HEK293. Description: Fluorescence-based counterscreen for potentiators or agonists of NPY-Y2: cell-based high-throughput dose response assay to identify inhibitors of cyclic nucleotide gated ion channel (CNGC) activity. In this assay, the parental HEK293 cell line transfected with a cyclic-nucleotide gated ion channel (CNGC)-based cAMP sensor is used to measure inhibition of isoproterenol-induced CNGC activity by test compound. The class given is functional. Conditions: Homo sapiens.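 Further: stimulus is 1 µM isoproterenol at EC100 plus PDE inhibitor Ro 20-1724 at 25 µM.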

The nature of test [4]: Trypanosoma cruzi growth suppression in host cells – NIH3T3 host cells, beta-gal luminescence, confirmation (AID 2044).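 Further: intracellular parasites grown in NIH/3T3 mouse fibroblasts as host cells; luminescent beta-galactosidase reporter signal from transgenic T. cruzi replicating inside host cells; inhibitors lower the luminescence signal.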 It is filed as functional, cell-based.
Test [5] concerns the target Neuropeptide Y receptor type 2 (Homo sapiens, UniProt P49146). Description: Fluorescence-based cell-based high-throughput dose response assay for agonists of NPY-Y2. [Related pubchem assays: 1703 (Screening assay (CNGC inhibitors).), 1359 (Screening assay (NPY-Y2 potentiators or agonists).), 1304 (Screening assay (NPY-Y1 potentiators or agonists).), 1710 (Screening assay (NPY-Y2 agonists).), 1791 (Summary AID.)]. The class given is functional.

Another test concerns the target Wee1-like protein kinase (Homo sapiens, UniProt P30291). Description: Dose Response Cell-based Assay for Inhibitors of Wee1 Degradation. [Related pubchem assays: 1410, 1321 ]. The class given is functional.
The target in test [6] is E3 ubiquitin-protein ligase Mdm2 (Homo sapiens, UniProt Q00987). Description: MDM2-luc reporter signal enhancers, multi-concentration potency testing, MDM2 ubiquitin-protein ligase inhibitor program, whole-cell format, luminescence detection, 384-well microplate (AID 1394).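 Further: MDM2 E3 inhibitors raise luminescence so EC50 is for signal enhancement.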 It is filed as functional.
The test system of test [7] is BJ. Description: cells. The class given is functional, cell-based. The note with it: Homo sapiens.
In test [8] the target is G2/mitotic-specific cyclin-B1 (Homo sapiens, UniProt P14635). As to the kind of experiment: Counterscreen assay for inhibitors of Wee1 degradation: dose response cell-based assay to identify inhibitors of cyclin B degradation. [Related pubchem assays: 1410, 1321 ]. The class given is functional. (In general: The purpose of a counterscreen is to sort out artefacts and off-target activity.)

Test [9] can be described thus: DRD fibroblast viability loss – cell-based, non-viral oncogenic, luminescence, dose response (AID 1934). It is filed as functional. The note with it: Homo sapiens.
Test [10] has as its system BJ. As to the kind of experiment: BJ-TERT-LT-ST fibroblast viability loss – cell-based, RAS-independent, luminescence, dose response (AID 1935).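 Further: BJ fibroblasts immortalized with TERT plus LT and ST oncogenes.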 The class given is functional. Conditions: Homo sapiens.
In the next test the test system is HeLa. Description: Cytotoxicity counterscreen assay for transcriptional activators of heat shock protein 70 (Hsp70). [Related pubchem assays: 1203, 1252 ]. It is filed as functional. Conditions: Homo sapiens.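 Further: cells exposed to compound for 16 hours before readout.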
For test [11], the system named is BJ. Description: BJ-TERT fibroblast viability loss – cell-based, RAS-independent, luminescence, dose response (AID 1933). It is filed as functional. Conditions: Homo sapiens.
Test [12] concerns the target Lysosomal acid glucosylceramidase (Homo sapiens, UniProt P04062). As to the kind of experiment: Dose response cell-based high throughput screening assay to identify enhancers of beta-glucosidase activity. [Related pubchem assays: 784 ]. It is filed as functional.
Test [13] concerns the target T2, Heat shock 70 kDa protein 1A (Homo sapiens, UniProt P0DMV8). Description: small-molecule inhibition of Hsp70 – biochemical, TR-FRET (AID 786).
Test [14] deals with T2, Heat shock 70 kDa protein 1A. Description: small molecules displacing fluorescent ligand from Hsp70 – biochemical, fluorescence polarization, primary screen (AID 583). (Fluorescence polarisation rises when a labelled molecule tumbles more slowly, as on binding a larger partner.)
The target in another test is T3, Estrogen receptor (Homo sapiens, UniProt P03372).
T3 sequence (P03372 whole entry): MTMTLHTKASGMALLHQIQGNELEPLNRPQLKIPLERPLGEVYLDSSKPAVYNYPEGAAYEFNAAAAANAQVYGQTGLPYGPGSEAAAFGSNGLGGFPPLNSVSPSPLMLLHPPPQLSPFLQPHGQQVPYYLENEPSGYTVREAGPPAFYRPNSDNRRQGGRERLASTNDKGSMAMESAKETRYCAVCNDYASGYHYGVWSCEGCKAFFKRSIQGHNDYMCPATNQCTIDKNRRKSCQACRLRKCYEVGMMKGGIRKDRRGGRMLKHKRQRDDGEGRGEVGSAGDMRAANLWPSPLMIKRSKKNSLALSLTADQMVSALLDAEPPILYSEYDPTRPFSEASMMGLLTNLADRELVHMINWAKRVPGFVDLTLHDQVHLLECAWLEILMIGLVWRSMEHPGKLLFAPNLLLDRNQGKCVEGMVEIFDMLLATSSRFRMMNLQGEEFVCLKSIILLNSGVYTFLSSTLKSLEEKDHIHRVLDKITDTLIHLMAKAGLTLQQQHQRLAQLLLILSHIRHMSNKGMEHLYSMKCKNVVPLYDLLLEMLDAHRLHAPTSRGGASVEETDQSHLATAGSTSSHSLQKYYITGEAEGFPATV
Description: blockers of SRC-3 recruitment to ERα – biochemical, ELISA, streptavidin-HRP readout, orthogonal assay, confirmation (AID 1079). (An ELISA detects its analyte on a solid surface through an enzyme-linked reagent.)

The target in test [15] is Photoreceptor-specific nuclear receptor (Homo sapiens, UniProt Q9Y5X4). The class given is functional.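 Further: potency for compounds that break the NR2E3 corepressor complex and count as activators.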
Test [16] addresses Peroxisome proliferator-activated receptor gamma/Nuclear receptor corepressor 2 (Homo sapiens, UniProt P37231+Q9Y618). The class given is functional.
For the next test, the target named is Chaperone protein dnaK (Escherichia coli, UniProt C3TRK2). As to the kind of experiment: E. coli DnaK binders, calorimetric Kd – biophysical, isothermal titration calorimetry, beta-domain, full-length DnaK, orthogonal assay for DnaK modulator project, SAR follow-up (AID 1495).
The nature of test [17]: A cytotoxicity screen of small molecule inhibitors of the PhoP region in Salmonella typhi identified in the primary screen. [Related pubchem assays: 1850, 1864, 1985 ]. The class given is functional.
Test [18] deals with Heat shock protein HSP 90-alpha (Homo sapiens, UniProt P07900). It is filed as functional, organism-based.
For a further test, the target named is NS3 (Hepatitis C virus, UniProt A3EZJ3). As to the kind of experiment: PubChem AID 2173. On the set-up: species or system Hepacivirus hominis.
Test [19] is described as follows: cells. It is filed as functional, cell-based.
In test [20] the test system is Streptococcus sp. 'group A'. As to the kind of experiment: Streptococcus pyogenes SK(-)GAS viability under kanamycin – luminescence, BacTiterGlo, confirmation, counter-screen for streptokinase expression inhibitor project, dose response (AID 1900). It is filed as functional, organism-based.
The nature of test [21]: microbe, parasite or virus in culture. It is filed as functional. Conditions: Mycobacterium tuberculosis.
Test [22] is described as follows: Vero E6 cell cytotoxicity, dose response, cytotoxicity control for non-replicating M. tuberculosis project, secondary assay (AID 492998). It is filed as functional, VeroE6. The note with it: Vero C1008.
Test [23] in a line: alpha-synuclein stem-loop translation blockers – luminescence, H4 neuroglioblastoma cells, dose confirmation, confirmation (AID 2454).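 Further: H4 neuroglioblastoma cells carrying an alpha-synuclein 5'UTR luciferase reporter; potency for inhibition of the luciferase signal.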 The class given is functional, cell-based.
For a further test, the system named is INS1. Description: INS-1E survival protection against cytokine death – cell-based, luminescence, retest, dose response (AID 449756).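 Further: cell death triggered by IL-1 beta plus TNF-alpha plus IFN-gamma mixture; protective hits raise ATP signal compared with cytokine alone wells.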 The class given is functional. Conditions: Rattus norvegicus.
Test [24] can be described thus: cells. The class given is functional.
The nature of test [25]: HEK-293T viability loss after treatment – luminescence, T-cell screen hits, cytotoxicity control for TCR NF-kB inhibitor project, dose response (AID 489026).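 Further: cells exposed to compound about 14 hours before the viability readout.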 It is filed as functional, cell-based.
Another test concerns the target T4, Streptokinase A (Streptococcus pyogenes serotype M1, UniProt P10520).
T4 sequence (P10520 whole entry): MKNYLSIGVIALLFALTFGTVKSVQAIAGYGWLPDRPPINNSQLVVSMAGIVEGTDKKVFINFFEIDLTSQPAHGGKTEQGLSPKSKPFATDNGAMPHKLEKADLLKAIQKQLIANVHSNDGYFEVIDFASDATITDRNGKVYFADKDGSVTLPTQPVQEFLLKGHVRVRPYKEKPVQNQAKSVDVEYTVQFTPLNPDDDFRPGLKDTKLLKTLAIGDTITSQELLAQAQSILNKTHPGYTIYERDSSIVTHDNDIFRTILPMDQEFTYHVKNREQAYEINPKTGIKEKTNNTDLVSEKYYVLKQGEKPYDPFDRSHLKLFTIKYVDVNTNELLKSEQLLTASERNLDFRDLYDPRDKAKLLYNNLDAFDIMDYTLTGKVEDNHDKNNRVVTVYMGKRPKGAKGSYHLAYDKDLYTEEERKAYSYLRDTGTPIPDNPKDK
Description: viability-normalized secreted streptokinase activity reduction – plasminogen activation absorbance, OD405, dose response (AID 1914).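 Further: secreted streptokinase activity via plasminogen activation per viability signal from cell pellet.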 It is filed as functional, Streptococcus pyogenes M1 GAS.

A short description of test [26]: luciferase reporter signal reduction – luminescence, H4-C neuroglioblastoma cells, dose response (AID 2458).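 Further: H4 neuroglioblastoma cells stably carrying a luciferase reporter gene fusion.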 It is filed as functional, cell-based.
The next test has as its system Streptococcus. As to the kind of experiment: GAS UMAA2166 growth inhibition – luminescence, BacTiterGlo, counter-screen for streptokinase expression inhibitor project, dose response (AID 1915).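 Further: potency for reduction of bacterial viability or growth.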 It is filed as functional, organism-based.
Test [27] is described as follows: THP-1 cell cytotoxicity, dose response, cytotoxicity control for non-replicating M. tuberculosis project (AID 489025). The class given is functional.
A short description of test [28]: alpha-synuclein stem-loop luciferase translation blockers – H4 neuroglioma cells, luminescence, confirmation (AID 1988). It is filed as functional, cell-based.

By EC50 is commonly meant the midpoint of the concentration-response curve. By IC50 is commonly meant the midpoint of a concentration-inhibition curve. The term Kd denotes the concentration at which binding is half-saturated. Usually AC50 stands for the concentration at which the activity in the assay is half-maximal.

T2 sequence (P0DMV8 whole entry): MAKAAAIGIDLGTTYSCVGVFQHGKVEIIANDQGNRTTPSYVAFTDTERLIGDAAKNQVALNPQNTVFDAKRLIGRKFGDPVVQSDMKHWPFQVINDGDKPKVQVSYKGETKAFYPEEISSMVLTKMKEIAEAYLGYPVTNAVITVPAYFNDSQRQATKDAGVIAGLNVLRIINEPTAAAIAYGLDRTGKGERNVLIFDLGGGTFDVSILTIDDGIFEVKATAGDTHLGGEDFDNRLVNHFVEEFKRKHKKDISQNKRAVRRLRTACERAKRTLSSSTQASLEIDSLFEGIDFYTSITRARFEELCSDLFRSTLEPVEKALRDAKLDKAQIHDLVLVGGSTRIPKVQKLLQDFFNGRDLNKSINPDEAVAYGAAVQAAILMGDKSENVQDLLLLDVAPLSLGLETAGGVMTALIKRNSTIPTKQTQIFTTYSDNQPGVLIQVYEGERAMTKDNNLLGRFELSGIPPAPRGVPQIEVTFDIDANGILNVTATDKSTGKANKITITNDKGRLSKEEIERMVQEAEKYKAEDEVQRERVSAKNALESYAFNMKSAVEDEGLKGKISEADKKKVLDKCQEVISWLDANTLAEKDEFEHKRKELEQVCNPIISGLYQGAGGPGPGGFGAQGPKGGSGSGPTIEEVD
Chain of Peroxisome proliferator-activated receptor gamma/Nuclear receptor corepressor 2 (P37231 whole entry): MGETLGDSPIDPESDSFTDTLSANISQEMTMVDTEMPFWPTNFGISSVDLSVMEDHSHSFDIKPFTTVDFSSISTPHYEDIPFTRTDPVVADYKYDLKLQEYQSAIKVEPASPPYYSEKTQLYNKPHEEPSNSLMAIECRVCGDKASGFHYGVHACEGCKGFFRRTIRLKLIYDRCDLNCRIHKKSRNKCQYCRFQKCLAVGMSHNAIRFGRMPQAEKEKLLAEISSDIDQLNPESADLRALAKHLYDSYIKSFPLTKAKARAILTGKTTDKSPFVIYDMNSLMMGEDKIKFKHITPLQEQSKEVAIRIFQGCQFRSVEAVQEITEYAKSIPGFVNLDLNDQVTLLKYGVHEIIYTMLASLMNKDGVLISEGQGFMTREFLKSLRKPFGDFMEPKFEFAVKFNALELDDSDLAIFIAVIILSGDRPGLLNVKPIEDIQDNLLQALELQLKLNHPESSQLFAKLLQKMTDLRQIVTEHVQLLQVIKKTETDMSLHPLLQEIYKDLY
Chain of Peroxisome proliferator-activated receptor gamma/Nuclear receptor corepressor 2 (Q9Y618 whole entry): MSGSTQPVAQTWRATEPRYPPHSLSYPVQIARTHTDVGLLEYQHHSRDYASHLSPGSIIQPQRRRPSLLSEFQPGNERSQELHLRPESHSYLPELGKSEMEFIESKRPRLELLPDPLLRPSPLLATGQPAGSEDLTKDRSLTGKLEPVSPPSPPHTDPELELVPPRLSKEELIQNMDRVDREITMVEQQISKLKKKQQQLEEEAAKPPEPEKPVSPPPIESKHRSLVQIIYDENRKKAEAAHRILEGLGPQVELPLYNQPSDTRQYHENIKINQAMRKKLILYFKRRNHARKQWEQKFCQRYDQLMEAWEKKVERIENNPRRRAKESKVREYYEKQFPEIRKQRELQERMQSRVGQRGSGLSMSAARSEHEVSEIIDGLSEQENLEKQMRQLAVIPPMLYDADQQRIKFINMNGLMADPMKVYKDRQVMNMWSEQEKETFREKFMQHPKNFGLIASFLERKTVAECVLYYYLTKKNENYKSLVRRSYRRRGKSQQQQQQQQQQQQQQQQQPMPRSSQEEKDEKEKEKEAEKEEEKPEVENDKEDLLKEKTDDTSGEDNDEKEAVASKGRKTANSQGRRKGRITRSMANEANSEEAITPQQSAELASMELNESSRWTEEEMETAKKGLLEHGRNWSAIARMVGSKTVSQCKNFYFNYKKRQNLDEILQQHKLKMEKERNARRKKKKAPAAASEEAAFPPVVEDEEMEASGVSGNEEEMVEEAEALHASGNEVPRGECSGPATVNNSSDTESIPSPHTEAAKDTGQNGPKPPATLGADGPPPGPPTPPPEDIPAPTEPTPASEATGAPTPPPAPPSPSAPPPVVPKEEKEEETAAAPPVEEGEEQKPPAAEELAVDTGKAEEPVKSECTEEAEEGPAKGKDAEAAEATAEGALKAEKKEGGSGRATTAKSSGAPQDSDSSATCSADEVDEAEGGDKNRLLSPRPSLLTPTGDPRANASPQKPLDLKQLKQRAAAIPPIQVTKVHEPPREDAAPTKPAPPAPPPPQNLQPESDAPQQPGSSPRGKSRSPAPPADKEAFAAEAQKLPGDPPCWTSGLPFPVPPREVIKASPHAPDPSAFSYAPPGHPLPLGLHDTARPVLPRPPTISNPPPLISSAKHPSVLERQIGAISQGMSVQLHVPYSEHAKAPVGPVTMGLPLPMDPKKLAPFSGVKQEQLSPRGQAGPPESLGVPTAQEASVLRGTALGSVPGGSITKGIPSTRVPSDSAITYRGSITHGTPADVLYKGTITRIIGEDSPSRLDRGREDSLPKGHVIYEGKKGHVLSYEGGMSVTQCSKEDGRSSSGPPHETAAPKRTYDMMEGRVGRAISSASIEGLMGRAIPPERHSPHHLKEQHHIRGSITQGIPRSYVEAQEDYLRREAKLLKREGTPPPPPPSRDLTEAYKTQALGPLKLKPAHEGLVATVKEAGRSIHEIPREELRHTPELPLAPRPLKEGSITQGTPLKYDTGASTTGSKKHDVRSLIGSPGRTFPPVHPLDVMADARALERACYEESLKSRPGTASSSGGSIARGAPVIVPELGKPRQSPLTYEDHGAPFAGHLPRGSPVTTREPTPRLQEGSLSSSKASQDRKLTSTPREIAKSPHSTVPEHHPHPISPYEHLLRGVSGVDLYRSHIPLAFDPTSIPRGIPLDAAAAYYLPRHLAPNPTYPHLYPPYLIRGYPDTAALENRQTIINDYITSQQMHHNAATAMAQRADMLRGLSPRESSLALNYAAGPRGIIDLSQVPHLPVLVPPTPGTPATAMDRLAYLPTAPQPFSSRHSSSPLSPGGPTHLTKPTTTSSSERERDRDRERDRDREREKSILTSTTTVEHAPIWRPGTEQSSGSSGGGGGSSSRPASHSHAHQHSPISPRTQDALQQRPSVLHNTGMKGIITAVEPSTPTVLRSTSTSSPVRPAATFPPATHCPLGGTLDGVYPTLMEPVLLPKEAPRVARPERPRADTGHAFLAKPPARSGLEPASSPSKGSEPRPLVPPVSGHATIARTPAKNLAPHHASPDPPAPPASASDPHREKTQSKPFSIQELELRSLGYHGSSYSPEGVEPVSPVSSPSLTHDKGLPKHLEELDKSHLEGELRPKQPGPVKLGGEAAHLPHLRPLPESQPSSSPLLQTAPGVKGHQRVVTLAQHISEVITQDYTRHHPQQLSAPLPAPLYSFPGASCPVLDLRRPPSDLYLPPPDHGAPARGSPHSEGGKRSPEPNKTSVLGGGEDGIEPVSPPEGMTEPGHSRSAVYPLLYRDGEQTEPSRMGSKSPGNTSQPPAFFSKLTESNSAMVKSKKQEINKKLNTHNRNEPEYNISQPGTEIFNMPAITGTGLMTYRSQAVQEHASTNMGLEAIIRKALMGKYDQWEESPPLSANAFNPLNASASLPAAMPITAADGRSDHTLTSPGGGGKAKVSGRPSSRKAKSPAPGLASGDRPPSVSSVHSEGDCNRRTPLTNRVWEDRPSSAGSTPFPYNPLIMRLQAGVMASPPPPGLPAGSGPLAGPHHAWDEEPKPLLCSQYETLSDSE
Chain of G2/mitotic-specific cyclin-B1 (P14635 whole entry): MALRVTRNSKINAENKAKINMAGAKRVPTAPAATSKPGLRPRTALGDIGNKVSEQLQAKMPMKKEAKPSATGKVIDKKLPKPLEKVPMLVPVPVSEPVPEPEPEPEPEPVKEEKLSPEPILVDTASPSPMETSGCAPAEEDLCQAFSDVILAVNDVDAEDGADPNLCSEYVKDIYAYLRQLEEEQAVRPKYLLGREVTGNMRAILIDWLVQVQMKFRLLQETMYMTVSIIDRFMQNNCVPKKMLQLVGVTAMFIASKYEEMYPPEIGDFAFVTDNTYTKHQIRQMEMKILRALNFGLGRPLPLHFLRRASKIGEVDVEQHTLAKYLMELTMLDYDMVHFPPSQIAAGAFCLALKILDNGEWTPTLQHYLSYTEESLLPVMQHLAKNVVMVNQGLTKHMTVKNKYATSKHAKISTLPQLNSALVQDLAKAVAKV
Chain of Neuropeptide Y receptor type 1 (P25929 whole entry): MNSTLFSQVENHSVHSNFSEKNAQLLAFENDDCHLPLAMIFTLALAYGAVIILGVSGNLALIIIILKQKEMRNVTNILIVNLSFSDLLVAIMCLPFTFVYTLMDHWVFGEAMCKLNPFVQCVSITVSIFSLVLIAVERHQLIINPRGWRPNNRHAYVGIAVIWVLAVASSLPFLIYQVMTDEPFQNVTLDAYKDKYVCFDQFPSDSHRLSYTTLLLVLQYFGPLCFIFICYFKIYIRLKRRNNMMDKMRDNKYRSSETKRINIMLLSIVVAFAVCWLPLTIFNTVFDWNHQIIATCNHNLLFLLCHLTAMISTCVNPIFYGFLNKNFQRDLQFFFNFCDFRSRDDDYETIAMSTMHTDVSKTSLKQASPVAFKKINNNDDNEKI
Chain of E3 ubiquitin-protein ligase Mdm2 (Q00987 whole entry): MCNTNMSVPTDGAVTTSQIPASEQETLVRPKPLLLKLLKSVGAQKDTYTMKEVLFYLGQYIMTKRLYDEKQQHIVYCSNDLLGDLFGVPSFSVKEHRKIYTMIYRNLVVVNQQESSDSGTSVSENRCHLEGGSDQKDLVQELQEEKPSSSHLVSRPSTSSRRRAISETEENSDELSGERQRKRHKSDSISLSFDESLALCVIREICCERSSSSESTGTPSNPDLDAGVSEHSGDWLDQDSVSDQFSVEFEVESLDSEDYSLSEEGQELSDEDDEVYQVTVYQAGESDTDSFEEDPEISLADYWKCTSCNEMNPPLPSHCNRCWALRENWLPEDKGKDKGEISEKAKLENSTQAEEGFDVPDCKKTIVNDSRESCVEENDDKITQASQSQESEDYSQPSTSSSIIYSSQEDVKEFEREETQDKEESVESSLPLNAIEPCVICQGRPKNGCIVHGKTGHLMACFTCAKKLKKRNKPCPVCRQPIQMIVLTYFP

Consider `COc1ccc2c(c1)c(CC(=O)Nc1nnc(C3CC3)s1)c(C)n2C(=O)c1ccc(Cl)cc1`, for which the concentration for a half-maximal effect (EC50) in [1] was 5.09 µM (active); in test [2], > 35.4 µM (not active); in [3], 21.6 µM (active); in the test on HEK293, > 35.4 µM (not active); in test [4], 2.28 µM (active); in [5] it was > 35.4 µM (not active).
`C=CS(=O)(=O)c1ccc(Oc2ccc(S(=O)(=O)C=C)cc2)cc1`: the EC50 on Wee1-like protein kinase was > 49.7 µM (not active); in test [6] it was 2.64 µM (active); in the test with BJ [7], > 150 µM (inconclusive); in test [8] it was > 5.53 µM (active); in test [9] it was 3.83 µM (active); in the test on BJ [10], > 150 µM (inconclusive). In addition, in the test with BJ [11], the EC50 is 2.24 µM (inconclusive). Also, the CC50 with HeLa is > 1.22 µM (not active).
With `CCCCN(CC)CCCNC(=O)c1cc2cc3ccc(OC)cc3nc2o1`, the EC50 in [12] is > 50 µM (not active).
For `Cc1ccc(OCCN2CCN(C(=O)CCC(=O)Nc3nnc(C)s3)CC2)cc1`, the IC50 in test [13] and in [14] was > 100 µM (not active) in each case.
For the molecule `O=C(CCCn1c(=S)[nH]c2ccccc2c1=O)N1CCN(c2ccc(Cl)cc2)CC1`, the 50% inhibitory concentration (IC50) on Estrogen receptor is given as 19.8 µM (not active).
Take `O=C(O)c1cc(-c2ccco2)nc2ccc(Br)cc12`: the IC50 in test [15] was > 39.8 µM (not active); in [16] it was 1.58 µM (active).
On to `O=C(c1cccs1)N1CCN(CCO)CC1`, for which the Kd on Chaperone protein dnaK was 16.7 µM (inactive).
Regarding `Cc1ccsc1/C=N\NC(=O)c1ccc2c(c1)OCO2`, in [17], the EC50 was > 50 µM (active).
`O=C(N/N=C/c1cc(Cl)c(O)c(Cl)c1)c1cc2c(ccc3ccccc32)o1`: the AC50 in test [18] is 4.54 µM (active). Besides, the IC50 on NS3 is 4.26 µM (active).
In the case of `CCOc1ccc(Nc2cc(C)nc(-n3nc(C)cc3C)n2)cc1`, the EC50 in the test “cells [19]” is 0.969 µM (active); in [20], 7.01 µM (active); in [23] it was 0.88 µM (active); on Streptokinase A it was > 150 µM (not active); in test [26] it was 0.588 µM (active); in the test with Streptococcus it was > 150 µM (not active). Further, the EC50 in [28] was < 0.1 µM (active). The figures for the CC50 in test [21], in test [22] and in test [27] were 6.26 µM (active), 1.14 µM (active) and 0.357 µM (active), respectively. The AC50 in the test with INS1 was 2.55 µM (active). Also, the results for the IC50 (in the test “cells [24]”; in [25]) were 0.56 µM (active) and > 80 µM (inactive), respectively.
